Experimental data reported in PubChem BioAssay (NCI).
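Where inhibition never reached the appropriate level, the endpoint shown equals the highest concentration tested. Otherwise, values were interpolated linearly from a five-concentration, 48-hour dose response in 96-well plates. The concentration for full growth arrest is given as TGI.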

Tests used:
Experiment in all cases: NCI-60 cell line screen, 48 h
786-0 renal = test system: 786-0 renal
A498 renal = test system: A498 renal
HCC-2998 colon = test system: HCC-2998 colon
HCT-15 colon = test system: HCT-15 colon
HOP-62 NSCLC = test system: HOP-62 NSCLC
M14 melanoma = test system: M14 melanoma
MDA-MB-435 = test system: MDA-MB-435
NCI-H226 lung = test system: NCI-H226 lung
NCI-H23 lung = test system: NCI-H23 lung
NCI-H522 lung = test system: NCI-H522 lung
NCI/ADR-RES ovarian = test system: NCI/ADR-RES ovarian
OVCAR-4 ovarian = test system: OVCAR-4 ovarian
RPMI-8226 leukemia = test system: RPMI-8226 leukemia
SF-539 CNS = test system: SF-539 CNS
SNB-19 CNS = test system: SNB-19 CNS
T-47D breast = test system: T-47D breast
SR leukemia = test system: SR leukemia

| Structure (SMILES) | TGI (786-0 renal) | TGI (A498 renal) | TGI (HCC-2998 colon) | TGI (HCT-15 colon) | TGI (HOP-62 NSCLC) | TGI (M14 melanoma) | TGI (MDA-MB-435) | TGI (NCI-H226 lung) | TGI (NCI-H23 lung) | TGI (NCI-H522 lung) | TGI (NCI/ADR-RES ovarian) | TGI (OVCAR-4 ovarian) | TGI (RPMI-8226 leukemia) | TGI (SF-539 CNS) | TGI (SNB-19 CNS) | TGI (T-47D breast) | TGI (SR leukemia) |
| --- | --- | --- | --- | --- | --- | --- | --- | --- | --- | --- | --- | --- | --- | --- | --- | --- | --- |
| O=c1[nH]ncc2[nH]c3c(c12)CCCc1ccccc1-3 | > 100 µM | 66.3 µM | 61.4 µM | > 100 µM | > 100 µM | > 100 µM | 82.9 µM | > 100 µM | > 100 µM | > 100 µM | > 100 µM | > 100 µM | 84.9 µM | > 100 µM | > 100 µM | > 100 µM | – |
| CNNC1=NS(=O)(=O)c2cc(C(=O)OC)c(Cl)cc2S1 | > 10 µM | > 10 µM | > 10 µM | > 10 µM | > 10 µM | > 10 µM | > 10 µM | > 10 µM | > 10 µM | > 10 µM | > 10 µM | > 10 µM | > 10 µM | > 10 µM | > 10 µM | > 10 µM | – |
| O=C(Nc1ccccc1)N1CC(CN2CCN(c3ccccc3)CC2)OC1=O (configuration not stated) | > 100 µM | > 100 µM | > 100 µM | > 100 µM | > 100 µM | > 100 µM | > 100 µM | > 100 µM | > 100 µM | > 100 µM | > 100 µM | > 100 µM | > 100 µM | – | > 100 µM | > 100 µM | > 100 µM |
| O=C(C1=CCC2(CC1)OCCO2)N(Cc1ccccc1)c1ccccc1I | 43 µM | 51.9 µM | 32.8 µM | 57.2 µM | 43.3 µM | 33.5 µM | 50.7 µM | 34.8 µM | 44.1 µM | – | 32.8 µM | 34.4 µM | 97.6 µM | – | 37.3 µM | 59.7 µM | > 100 µM |
| c1csc(-c2cc(-c3ccsc3)c(-c3cccs3)s2)c1 | > 100 µM | > 100 µM | > 100 µM | > 100 µM | > 100 µM | > 100 µM | > 100 µM | > 100 µM | > 100 µM | > 100 µM | > 100 µM | > 100 µM | – | > 100 µM | > 100 µM | > 100 µM | > 100 µM |
| Cc1ccc2c(c1)C(=O)C1(C2)Cc2ccc(C)cc2C1=O | > 100 µM | > 100 µM | > 100 µM | > 100 µM | > 100 µM | > 100 µM | > 100 µM | – | > 100 µM | > 100 µM | > 100 µM | > 100 µM | > 100 µM | > 100 µM | > 100 µM | > 100 µM | > 100 µM |
| c1ccc(SCCP(CCP(c2ccccc2)c2ccccc2)c2ccccc2)cc1 (configuration not stated) | > 100 µM | – | > 100 µM | > 100 µM | > 100 µM | 43.5 µM | > 100 µM | > 87.6 µM | > 54.1 µM | – | > 100 µM | 97.1 µM | > 66.3 µM | > 100 µM | > 100 µM | 79.1 µM | – |
| C1CSCCSS[C@@H]2CCCCC2SC1 (some centres not stated) | > 100 µM | – | > 100 µM | > 100 µM | > 100 µM | > 100 µM | > 100 µM | – | > 100 µM | > 100 µM | > 100 µM | > 100 µM | – | > 100 µM | > 100 µM | > 100 µM | > 100 µM |
| CNC(=O)OC(C)CN1c2ccccc2Sc2ccccc21 (configuration not stated) | > 100 µM | > 100 µM | > 100 µM | > 100 µM | > 100 µM | > 100 µM | > 100 µM | > 100 µM | > 100 µM | > 100 µM | > 100 µM | > 100 µM | – | > 100 µM | > 100 µM | > 100 µM | > 100 µM |
| Fc1ccc(C(OCCN2CC3CC2CN3CCCc2ccccc2)c2ccc(F)cc2)cc1 (configuration not stated) | 18 µM | 18.3 µM | 5.7 µM | 16.8 µM | 29.1 µM | 3.79 µM | 20.5 µM | 23.9 µM | 23.8 µM | 21.2 µM | 19.8 µM | 25.8 µM | 6.54 µM | 5.12 µM | 27.3 µM | 7.21 µM | – |
| CC(C)Nc1n[nH]c(=O)n1C(C)C | > 100 µM | > 100 µM | – | > 100 µM | > 100 µM | > 100 µM | > 100 µM | > 100 µM | > 100 µM | – | > 100 µM | – | > 100 µM | > 100 µM | > 100 µM | > 100 µM | > 100 µM |
| COc1cc(CSc2ccc(O)cc2)cc(O)c1O | > 100 µM | > 100 µM | > 100 µM | 57.1 µM | > 100 µM | 43.7 µM | 94.6 µM | 65.5 µM | > 100 µM | 38.3 µM | 71.3 µM | – | 56.3 µM | 85.9 µM | > 100 µM | 53.4 µM | > 100 µM |
| COc1ccc(-n2c(C)nc3ccc(N=Cc4ccccc4)cc3c2=O)cc1 | > 100 µM | > 100 µM | > 100 µM | > 100 µM | > 100 µM | – | > 100 µM | > 100 µM | > 100 µM | > 100 µM | > 100 µM | > 100 µM | > 100 µM | – | > 100 µM | > 100 µM | > 100 µM |
| Cc1nnc2sc(-c3ccc(N)cc3)nn12 | > 100 µM | – | > 100 µM | > 100 µM | > 100 µM | > 100 µM | > 100 µM | > 100 µM | > 100 µM | > 100 µM | > 100 µM | > 100 µM | > 100 µM | > 100 µM | > 100 µM | > 100 µM | > 100 µM |
| COc1ccc(C(F)(F)F)cc1NC(=O)O/N=C(/Cl)C(C)C | 31.8 µM | 66.2 µM | 39.3 µM | > 30.4 µM | 46 µM | 36 µM | 48.1 µM | 35.6 µM | 40.2 µM | 4.57 µM | 56.5 µM | 35.8 µM | 6.05 µM | 37 µM | 42.6 µM | 45.5 µM | – |
